# Legend:
# [1] = tested on: F2 population from the cross GM40 (A122T)/HA425 (A205V); assay: imazapyr challenge of segregating population (Example 1); assay type: in vivo, sunflower; settings: 320 g a.i. ha-1; eighty F2 plants
# Experimental: (§1) To determine the phenotypic interactions of the resistance gene A122T and the Imr1 gene (A205V) already described in IMI-R sunflowers (HA425), F1, F2 and BC1F1 populations from the cross GM40 (A122T)/HA425 (A205V) were evaluated at two herbicide applications rates (80 and 320 g. a. i. Ha^−1 of imazapyr). […] When F2 and BC1F1 populations were scored at the higher herbicide rate (320 g. a. i. Ha-1), which discriminates both parents, segregation for susceptibility was observed. Only two phenotypic classes could be detected, a resistant class with plants without any injury or slight symptoms and a susceptible phenotype that was killed like the control line HA425.
# The AHASL1 gene in sunflower presents a simple sequence repeat (SSR) polymorphism which discriminates lines carrying the Imr1 allele from any other sunflower genotype (Kolkman et al. (2004) Theor. Appl. Genet. 109: 1147-1159). […] This length variant polymorphism detected in GM40 and HA425 was exploited to investigate the segregation in the F2 and BC1F1 populations derived from crossing both lines. […] The cosegregation of herbicide resistance phenotypes and AHASL1 haplotypes was further assessed on 50 BC1F1 progeny segregating for resistance. […]
# [2] = tested on: sunflower line B770 (conventional); assay: tolerance to imidazolinones, greenhouse (Example 8)
# [3] = tested on: control line HA425 (A205V); assay: imazapyr challenge of segregating population (Example 1); assay type: in vivo, sunflower; settings: 320 g a.i. ha-1
# Experimental: as §1
compound,measurement,setting,value
CC(C)C1(C)N=C(c2ncccc2C(=O)O)NC1=O (centres unmarked) [imazapyr],plants killed by the herbicide (S),[1],22 plants
same,plants with no symptoms or a slight injury (R),[1],58 plants
same,outcome of the herbicide treatment,[2]; 160 gr/ha at V4,killed
same,Mean Phytotoxicity Index (0-9),"[2]; 160 gr/ha at V4, fourteen days after treatment",8.7
same,outcome of herbicide application,[3],killed
